# In patent US20040005537A1, “Method of identifying toxic agents using differential gene expression” (priority 2000, published 2004):
# Test system: rat heart tissue
# Experiment: GENECALLING differential gene expression analysis after dosing of serotonin modulating agents
# Assay type: in vivo, Sprague Dawley rats
# Procedure, shortened: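 GENECALLING profiling of cDNA from total RNA, keeping gene fragments modulated beyond ±1.5-fold. Tissue collected 24 h after final dosing of serotonin modulating agents; control rats received sterile water or canola oil.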
smiles,measurement,setting,value
CNCCC(Oc1ccc(C(F)(F)F)cc1)c1ccccc1 (stereo not drawn) [fluoxetine],"Effects on Transcription Level: Novel gene fragment, 524 bp, 86% SI to mouse F-box protein FBX6b [AF176526]",CARDIOTOX 1,+1.3 fold
same,"Effects on Transcription Level: Novel gene fragment, 306 bp, 91% SI to mouse low density lipoprotein receptor related protein 4 [AB013874]",CARDIOTOX 2,−1.3 fold
same,"Effects on Transcription Level: Novel gene fragment, 540 bp, 97% SI to mouse skeletal muscle alpha-actin [X03766]",CARDIOTOX 3,−1.2 fold
same,"Effects on Transcription Level: Novel gene fragment, 80 bp",CARDIOTOX 4,−1.3 fold
same,"Effects on Transcription Level: Novel gene fragment, 957 bp, 99% SI to kidney injury associated moleculer HW036 [V80591]",CARDIOTOX 5,−1.4 fold
same,"Effects on Transcription Level: Novel gene fragment, 282 bp, 85% SI to human KIAA1515 protein [AB040948]",CARDIOTOX 6,−1.2 fold
same,"Effects on Transcription Level: Novel gene fragment, 405 bp, 88% SI to human 2-oxoglutarate dehydrogenase [D10523]",CARDIOTOX 7,+1.2 fold
same,Effects on Transcription Level: UCP2,"CARDIOTOX 8, GenBank AB010743",−1.3 fold
same,Effects on Transcription Level: Plasma membrane Ca2 + ATPase-isoform 1,"CARDIOTOX 9, GenBank J03753",−1.1 fold
same,"Effects on Transcription Level: Novel gene fragment, 242 bp, 97% SI to mouse HSP86 heat-shock protein [X16857]",CARDIOTOX 10,+1.4 fold
same,"Effects on Transcription Level: Novel gene fragment, 280 bp, 65% SI to human TRF1-interacting, ankyrin-related ADP-ribose polymerase [AF082556]",CARDIOTOX 11,+1.3 fold
same,"Effects on Transcription Level: Novel gene fragment, 348 bp, 88% SI to mouse Sec61 protein complex gamma subunit [U11027]",CARDIOTOX 12,+1.2 fold
same,"Effects on Transcription Level: Novel gene fragment 553 bp, 93% SI to mouse Sid329 [AB024984]",CARDIOTOX 13,+1.1 fold
same,Effects on Transcription Level: Kruppel-like transcription factor,"CARDIOTOX 14, GenBank AB020759",+1.3 fold
same,Effects on Transcription Level: Ribosomal protein L3,"CARDIOTOX 15, GenBank X62166",+1.1 fold
same,Effects on Transcription Level: Glucose-regulated protein (GRP) 75,"CARDIOTOX 16, GenBank S78556",+1.3 fold
same,Effects on Transcription Level: Immunoglobulin heavy chain binding protein (BiP),"CARDIOTOX 17, GenBank M14050",+1.4 fold
same,Effects on Transcription Level: Membrane-spannining proteoglycan NG2,"CARDIOTOX 18, GenBank X56541",−1.2 fold
same,"Effects on Transcription Level: Novel gene fragment, 1294 bp, 96% SI to mouse Sui 1 (elF) homolog [AF129888]",CARDIOTOX 19,+1.1 fold
same,"Effects on Transcription Level: Novel gene fragment, 723 bp, 85% SI to human translation initiation factor elF3 p40 subunit [U54559]",CARDIOTOX 20,+1.0 fold
same,"Effects on Transcription Level: Novel gene fragment, 1324 bp, 76% SI to human flavoprotein subunit of complex II [D30648]",CARDIOTOX 21,+1.3 fold
same,"Effects on Transcription Level: Novel gene fragment, 852 bp, 81% SI to human vacuolar proton-ATPase subunit M9.2 [Y15286]",CARDIOTOX 22,+1.2 fold
same,"Effects on Transcription Level: Novel gene fragment, 178 bp, 91% SI to mouse myosin light chain-2 isoform MLC-2a [S70785]",CARDIOTOX 23,+1.3 fold
same,"Effects on Transcription Level: Novel gene fragment, 167 bp, 90% SI to mouse Rab20 [X80332]",CARDIOTOX 24,−1.2 fold
same,"Effects on Transcription Level: Novel gene fragment, 1070 bp, 80% SI to human muscle-specific protein [AF249873]",CARDIOTOX 25,+1.3 fold
same,"Effects on Transcription Level: Novel gene fragment, 1143 bp, 82% SI to human sarcoma amplified sequence (SAS) [U01160]",CARDIOTOX 26,+1.2 fold
same,"Effects on Transcription Level: Novel gene fragment, 74 bp,75% SI to human secreted protein [X30160] (from patent database)/[X97578] (from patent database)/potential cytokine)",CARDIOTOX 27,+1.2 fold
same,"Effects on Transcription Level: Novel gene fragment, 408 bp, 90% SI to human CGI-07 protein [AF132941]",CARDIOTOX 28,+1.2 fold
same,"Effects on Transcription Level: Novel gene fragment, 618 bp, 95% SI to rat progression related cDNA, ZNPE-120 3′ end partial sequence [patent database X90805]",CARDIOTOX 29,+1.4 fold
same,"Effects on Transcription Level: Novel gene fragment, 717 bp",CARDIOTOX 30,+1.2 fold
same,"Effects on Transcription Level: Novel gene fragment, 546 bp",CARDIOTOX 31,+1.1 fold
same,"Effects on Transcription Level: Novel gene fragment, 920 bp, 91% SI to human HSPC061 [AF161546]",CARDIOTOX 32,+1.4 fold
same,"Effects on Transcription Level: Novel gene fragment, 203 bp, 92% SI to rabbit sarcoplasmic reticulum glycoprotein [J04480]",CARDIOTOX 33,−1.4 fold
same,"Effects on Transcription Level: Novel gene fragment, 178 bp, 68% SI to mouse IgG receptor (beta-Fc-gamma-RII)[M63159]",CARDIOTOX 34,+1.3 fold
same,Effects on Transcription Level: Ribosomal protein L6,"CARDIOTOX 35, GenBank X87107",+1.2 fold
same,Effects on Transcription Level: CAP2 protein (adenylyl cyclase-associated protein 2),"CARDIOTOX 36, GenBank U31935",+1.4 fold
same,Effects on Transcription Level: Alpha-platelet-derived growth factor receptor,"CARDIOTOX 37, GenBank M63837",+1.3 fold
same,Effects on Transcription Level: Rab GD1 alpha protein,"CARDIOTOX 38, GenBank X74402",−1.3 fold
same,Effects on Transcription Level: PKC-zeta-interacting protein,"CARDIOTOX 39, GenBank Y08355",+1.1 fold
same,Effects on Transcription Level: ERK or MAP kinase,"CARDIOTOX 40, GenBank X65198",+1.3 fold
same,Effects on Transcription Level: Peroxisomal multifunctional enzyme type II,"CARDIOTOX 41, GenBank U37486",+1.3 fold
same,Effects on Transcription Level: HBP23 (heme-binding protein 23 kDa),"CARDIOTOX 42, GenBank D30035",+1.3 fold
same,Effects on Transcription Level: Caveolae-associated protein,"CARDIOTOX 43, GenBank U90725",+1.3 fold
same,Effects on Transcription Level: Prenylated rab acceptor 1 (PRA1),"CARDIOTOX 44, GenBank AF025506",+1.2 fold
same,"Effects on Transcription Level: Novel gene fragment, 337 bp, 88% SI to rabbit cardiac ryanodine receptor (RyR-2)[U50465]",CARDIOTOX 45,+1.3 fold
same,"Effects on Transcription Level: Novel gene fragment, 81 bp, 85% SI to human titin [X90568]",CARDIOTOX 46,−1.1 fold
same,"Effects on Transcription Level: Novel gene fragment, 428 bp, 86% SI to human titin [X90568]",CARDIOTOX 47,+1.1 fold
same,"Effects on Transcription Level: Novel gene fragment, 374 bp, 88% SI to human titin [X90568]",CARDIOTOX 48,+1.1 fold
same,"Effects on Transcription Level: Novel gene fragment, 428 bp, 85% SI to human titin [90568]",CARDIOTOX 49,−1.3 fold
same,"Effects on Transcription Level: Novel gene fragment, 1216 bp, 93% SI to mouse mircotubule-associated protein (MAP) 1B protein [AF115776]",CARDIOTOX 50,−1.2 fold
same,"Effects on Transcription Level: Novel gene fragment, 1115 bp, 83% SI to human KIAA0549 protein [AB011121]",CARDIOTOX 51,−1.4 fold
same,"Effects on Transcription Level: Novel gene fragment, 153 bp",CARDIOTOX 52,−1.4 fold
same,"Effects on Transcription Level: Novel gene fragment, 89 bp, 93% SI to human putative glialblastoma cell differentiation-related protein (GBDR1) [AF068195]",CARDIOTOX 53,−1.0 fold
same,Effects on Transcription Level: Rho-associated kinase beta,"CARDIOTOX 54, GenBank U61266",−1.2 fold
same,Effects on Transcription Level: Adenylate kinase 3,"CARDIOTOX 55, GenBank D13062",+1.3 fold
same,Effects on Transcription Level: Amyloid beta-peptide binding protein,"CARDIOTOX 56, GenBank AF049878",+1.3 fold
same,Effects on Transcription Level: Mitochondrial adenine nuleotide translocator,"CARDIOTOX 57, GenBank D12771",+1.4 fold
same,"Effects on Transcription Level: Novel gene fragment, 710 bp, 94% SI to mouse chromatin structural protein homolog Supt5 hp (Supt5 h)[U88539]",CARDIOTOX 58,+2.8 fold
same,"Effects on Transcription Level: Novel gene fragment, 186 bp, 66% SI to human N-acetylglucosaminyltransferase 1 (GlcNAc-TI)[M55621]",CARDIOTOX 60,−2.7 fold
same,"Effects on Transcription Level: Novel gene fragment, 238 bp, 95% SI to mouse MAP kinase-activated protein kinase 2 [X76850]",CARDIOTOX 61,−1.7 fold
same,"Effects on Transcription Level: Novel gene fragment, 173 bp, 70% SI to G protein-coupled receptor kinase GRK4 [X97568]",CARDIOTOX 62,−4.7 fold
same,"Effects on Transcription Level: Novel gene fragment, 133 bp, 77% SI to human apoptosis related protein hSARP3 [patent database: V19114]",CARDIOTOX 63,−2.6 fold
same,"Effects on Transcription Level: Novel gene fragment, 477 bp, 98% SI to peroxisomal phytanoyl-CoA hydroxylase (PHYH) [AF121345]",CARDIOTOX 64,+3.7 fold
same,"Effects on Transcription Level: Novel gene fragment, 413 bp, 95% SI to mouse dihydrolipoamide dehydrogenase (Dld) [U73445]",CARDIOTOX 65,+2.0 fold
same,"Effects on Transcription Level: Novel gene fragment, 726 bp, 76% SI to human succinate dehydrogenase flavoprotein subunit (SDH) [L21936]",CARDIOTOX 66,−4.4 fold
same,"Effects on Transcription Level: Novel gene fragment, 440 bp, 92% SI to mouse cytochrome c oxidase Vllc [X52940]",CARDIOTOX 67,+2.1 fold
same,"Effects on Transcription Level: Novel gene fragment, 276 bp, 80% SI to human titin [X90568]",CARDIOTOX 68,−11.0 fold
same,"Effects on Transcription Level: Novel gene fragment, 149 bp, 70% SI to human titin [X90568]",CARDIOTOX 69,−3.7 fold
same,"Effects on Transcription Level: Novel gene fragment, 467 bp, 94% SI to mouse gelsolin [J04953]",CARDIOTOX 70,−3.8 fold
